# Assay results from ChEMBL document CHEMBL1124295, “Synthesis and oral antiallergic activity of carboxylic acids derived from imidazo[2,1-c][1,4]benzoxazines, imidazo[1,2-a]quinolines, imidazo[1,2-a]quinoxalines, imidazo[1,2-a]quinoxalinones, pyrrolo[1,2-a]quinoxalinones, pyrrolo[2,3-a]quinoxalinones, and imidazo[2,1-b]benzothiazoles” (1988).
# The source made the active and inactive calls. No cut-off for these calls is given here.
# How the values were obtained:
# [1] = system: Rattus norvegicus; assay: Inhibition of the IgE-mediated passive cutaneous anaphylaxis (PCA) reaction in rat after oral administration; Inactive at 1 and 10 mg/kg; type: functional, organism-based; design: dose 10 mg/kg
# [2] = system: Rattus norvegicus; assay: Inhibition of the IgE-mediated passive cutaneous anaphylaxis (PCA) reaction in rat after intravenous administration; Range 0.24-1.05; type: functional
# [3] = system: Rattus norvegicus; assay: Inhibition of the IgE-mediated passive cutaneous anaphylaxis (PCA) reaction in rat after intravenous administration; Range 0.058-0.15; type: functional
# [4] = system: Rattus norvegicus; assay: Inhibition of the IgE-mediated passive cutaneous anaphylaxis (PCA) reaction in rat after intravenous administration; Range 0.05-0.11; type: functional
# [5] = system: Rattus norvegicus; assay: Inhibition of the IgE-mediated passive cutaneous anaphylaxis (PCA) reaction in rat after oral administration; Inactive(50% inhibition at 10 mg/kg); type: functional
# [6] = system: Rattus norvegicus; assay: Inhibition of the IgE-mediated passive cutaneous anaphylaxis (PCA) reaction in rat after intravenous administration; Range 0.021-0.03; type: functional
# [7] = system: Rattus norvegicus; assay: Inhibition of the IgE-mediated passive cutaneous anaphylaxis (PCA) reaction in rat after oral administration; NA means inactive at 1 and 10 mg/Kg; type: functional, organism-based
# [8] = system: Rattus norvegicus; assay: Inhibition of the IgE-mediated passive cutaneous anaphylaxis (PCA) reaction in rat after intravenous administration; Range 0.12-0.35; type: functional
# [9] = system: Rattus norvegicus; assay: Inhibition of the IgE-mediated passive cutaneous anaphylaxis (PCA) reaction in rat after intravenous administration; Inactive at 1 and 10 mg/kg; type: functional, organism-based; design: dose 10 mg/kg
# [10] = system: Rattus norvegicus; assay: Inhibition of the IgE-mediated passive cutaneous anaphylaxis (PCA) reaction in rat after intravenous administration; Range 0.13-0.26; type: functional
# [11] = system: Rattus norvegicus; assay: Inhibition of the IgE-mediated passive cutaneous anaphylaxis (PCA) reaction in rat after oral administration; Inactive; type: functional, organism-based
# [12] = system: Rattus norvegicus; assay: Inhibition of the IgE-mediated passive cutaneous anaphylaxis (PCA) reaction in rat after oral administration; Range 0.29-0.4; type: functional
# [13] = system: Rattus norvegicus; assay: Inhibition of the IgE-mediated passive cutaneous anaphylaxis (PCA) reaction in rat after intravenous administration; Range 0.24-0.39; type: functional
# [14] = system: Rattus norvegicus; assay: Inhibition of the IgE-mediated passive cutaneous anaphylaxis (PCA) reaction in rat after intravenous administration; Range 1.14-3.89; type: functional
# [15] = system: Rattus norvegicus; assay: Inhibition of the IgE-mediated passive cutaneous anaphylaxis (PCA) reaction in rat after intravenous administration; NA means inactive at 1 and 10 mg/Kg; type: functional, organism-based
# [16] = system: Rattus norvegicus; assay: Inhibition of the IgE-mediated passive cutaneous anaphylaxis (PCA) reaction in rat after intravenous administration; Range 0.02-0.38; type: functional
# [17] = system: Rattus norvegicus; assay: Inhibition of the IgE-mediated passive cutaneous anaphylaxis (PCA) reaction in rat after intravenous administration; Range 0.91-3.86; type: functional
# [18] = system: Rattus norvegicus; assay: Inhibition of the IgE-mediated passive cutaneous anaphylaxis (PCA) reaction in rat after oral administration; Range 4.38-21.4; type: functional
# [19] = system: Rattus norvegicus; assay: Inhibition of the IgE-mediated passive cutaneous anaphylaxis (PCA) reaction in rat after intravenous administration; Range 0.25-0.41; type: functional
# [20] = system: Rattus norvegicus; assay: Inhibition of the IgE-mediated passive cutaneous anaphylaxis (PCA) reaction in rat after oral administration; Range 0.026-0.31; type: functional
# [21] = system: Rattus norvegicus; assay: Inhibition of the IgE-mediated passive cutaneous anaphylaxis (PCA) reaction in rat after intravenous administration; Range 0.22-0.38; type: functional
# [22] = system: Rattus norvegicus; assay: Inhibition of the IgE-mediated passive cutaneous anaphylaxis (PCA) reaction in rat after intravenous administration; Range 0.18-0.41; type: functional
# [23] = system: Rattus norvegicus; assay: Inhibition of the IgE-mediated passive cutaneous anaphylaxis (PCA) reaction in rat after intravenous administration; Range 2.74-6.94; type: functional
# [24] = system: Rattus norvegicus; assay: Inhibition of the IgE-mediated passive cutaneous anaphylaxis (PCA) reaction in rat after oral administration; Range 1.22-2.52; type: functional
# [25] = system: Rattus norvegicus; assay: Inhibition of the IgE-mediated passive cutaneous anaphylaxis (PCA) reaction in rat after intravenous administration; […]; type: functional
# [26] = system: Rattus norvegicus; assay: Inhibition of the IgE-mediated passive cutaneous anaphylaxis (PCA) reaction in rat after oral administration; Inactive at 10 mg/kg; type: functional, organism-based; design: dose 10 mg/kg
smiles,measurement,setting,value
O=C(Nc1nn[nH]n1)c1cn2c(cnc3ccccc32)n1,ED50,[1],inactive
same,ED50,[2],0.45 mg/kg
O=C(O)c1cn2c(cc(-c3ccccc3)c3ccccc32)n1,ED50,[1],inactive
C[S+](=N)([O-])c1ccc2ccc3nc(C(=O)O)cn3c2c1 (configuration not stated),ED50,[3],0.095 mg/kg
O=C(O)c1nc(Cc2ccccc2)n2c1c(O)nc1ccccc12,ED50,[1],inactive
CCn1c(=O)c2nc(CO)cn2c2ccccc21,ED50,[4],0.071 mg/kg
CS(=O)(=O)c1ccc2ccc3nc(C(=O)O)cn3c2c1,inhibition in vivo at 10 mg/kg,[5],50%
same,ED50,[6],0.028 mg/kg
COC(=O)c1nc2n(c1CO)-c1ccccc1OC2,ED50,[7],inactive
O=C(O)c1cn2c(cnc3cc(Cl)c(Cl)cc32)n1,ED50,[1],inactive
same,ED50,[8],0.2 mg/kg
O=C(O)c1cc2c(ccc3ccccc32)s1,ED50,[9],inactive
O=C(O)c1cn2c(n1)c(CO)cc1ccccc12,ED50,[9],inactive
CCn1c(=O)c2cc(C(=O)Nc3nn[nH]n3)cn2c2ccccc21,ED50,[10],0.18 mg/kg
CCOC(=O)c1cn2c3ccccc3c(=O)n(CC)c2n1,ED50,[11],inactive
c1ccc2c(c1)OCc1nc(-c3nn[nH]n3)cn1-2,ED50,[7],inactive
O=C(O)c1cn2c(ccc3ccccc32)n1,ED50,[12],0.34 mg/kg
same,ED50,[13],0.3 mg/kg
O=C(O)c1cn2c(cc(-c3ccccc3)c3cc(Cl)ccc32)n1,ED50,[1],inactive
Cc1c(C(=O)O)nc2ccc3ccc(Cl)cc3n12,ED50,[14],1.99 mg/kg
O=C(O)c1cn2ccc3ccccc3c2n1,ED50,[15],inactive
OCc1cn2c(cc(Cl)c3ccc(Cl)cc32)n1,ED50,[16],0.16 mg/kg
CC1Oc2ccccc2-n2cc(C(=O)O)nc21 (configuration not stated),ED50,[17],1.76 mg/kg
same,ED50,[18],8.46 mg/kg
O=C(O)Cc1cn2c(n1)COc1ccccc1-2,ED50,[15],inactive
CCn1c(=O)c2nc(C(=O)Nc3nn[nH]n3)cn2c2ccccc21,ED50,[19],0.32 mg/kg
O=Cc1cn2c(ccc3ccccc32)n1,ED50,[20],0.093 mg/kg
c1ccc2c(c1)OCc1nc(CN3CCCCC3)cn1-2,ED50,[15],inactive
O=C(O)c1cc2ccc3ccccc3n2c1,ED50,[9],inactive
O=C(Cc1cn2c(n1)COc1ccccc1-2)Nc1nn[nH]n1,ED50,[15],inactive
Cc1cc2sc3nc(C(=O)O)cn3c2cc1C,ED50,[21],0.3 mg/kg
C[S+]([O-])c1cc2nc(C(=O)O)cn2c2ccccc12 (configuration not stated),ED50,[22],0.29 mg/kg
O=C(O)c1cn2c(n1)c(-c1ccccc1)cc1ccccc12,ED50,[9],inactive
O=C(O)c1nc2ccc3ccccc3n2c1Br,ED50,[23],4.19 mg/kg
O=C(O)c1nc2n(c1C(=O)O)-c1ccccc1OC2,ED50,[15],inactive
CSc1ccc2ccc3nc(C(=O)O)cn3c2c1,ED50,[3],0.095 mg/kg
COc1ccc2ccc3nc(C(=O)Nc4nn[nH]n4)cn3c2c1,ED50,[9],inactive
O=C(O)c1cc2c(=O)n(C3CCCC3)c3ccccc3n2c1,ED50,[24],1.96 mg/kg
same,ED50,[25],0.037 mg/kg
O=C(O)c1cn2c(n1)c(O)nc1cc(Cl)c(Cl)cc12,ED50,[26],inactive
CCc1nc(C(=O)O)c2c(O)nc3ccccc3n12,ED50,[9],inactive
O=C(O)c1cnc2n1-c1ccccc1OC2,ED50,[15],inactive
